Square brackets hold non-standard residues; d marks the D form. Side chains are listed from the residue outwards. Peptide text beside a SMILES is read from it. * marks the point of attachment. NMeY = CN[C@@H](Cc1ccc(O)cc1)C(=O)O; Palmitoyl = CCCCCCCCCCCCCCCC(=O)*; αMeF = C[C@](N)(Cc1ccccc1)C(=O)O; Iva = CC[C@](C)(N)C(=O)O; Aib = CC(C)(N)C(=O)O
Tests used:
Male DIO C57BL/6J mice = assay: Repeated dosing study in diet-induced obese (DIO) mice; type: in vivo, mouse; conditions: for ALT / AST / Insulin / TC / TG: plasma, mean ± SD
Method: Male DIO C57BL/6J mice (40 weeks old) were divided into the groups based on the data of body weight, food intake, and plasma parameters. Vehicle or the compounds (P41) of Example 41 was subcutaneously administered once a day for 4 weeks. Body weight and food intake were monitored during the study. Compounds were dissolved in 10% DMSO/saline. After the study, blood was collected and plasma parameters were measured. At day 29, body composition was measured by EchoMRI (Hitachi Aloka Medical, Ltd., Japan) and the animals were sacrificed. For hematoxylin and eosin (HE) staining, livers were dissected from DIO mice after 4 weeks drug administration described in the above body-weight studies section. Livers were fixed in 4% paraformaldehyde, embedded in paraffin, sectioned, and stained with HE. After processing, the sections were mounted and then examined via light microscopy (NanoZoomer, Hamamatsu Photonics).
Total RNA was isolated from the liver using QIAzol reagent (QIAGEN Japan, Tokyo, Japan) and cDNA was synthesized using High-Capacity cDNA Reverse Transcription Kit (Applied Biosystems, CA, USA). Quantitative RT-PCR was performed using the ABI Prism 7900 Sequence Detection System with EXPRESS qPCR Super Mix (Thermo Fisher Scientific Inc. MA. USA). Mixtures of primers and probes (Applied Biosystems) were used for the detection of mRNA (Table 4). The expression levels were normalized to those of beta-actin and Peptidyl isomerase A.
Plasma glucose, triglyceride (TG), total cholesterol (TC), aspartate aminotransferase (AST), and alanine aminotransferase (ALT) were analyzed by Autoanalyzer 7180 (Hitachi High-Technologies Corporation, Japan). Blood glycated hemoglobin (GHb) was measured with the automated GHb analyzers (HLC-723G8, Tosoh, Tokyo, Japan). Liver triglyceride content was measured as follows: a piece of tissue was homogenized in saline and lipid was extracted by the addition of hexane:isopropanol (3:2) solution. The lipid phase was collected, dried and then dissolved in isopropanol. The concentration of triglyceride was measured by Triglyceride E-test (Wako Pure Chemical Industries, Ltd, Japan) and triglyceride content per g liver was calculated. Plasma insulin was measured with ELISA Assay kit (Shibayagi Co. Ltd., Japan).

cynomolgus monkeys = assay: Food intake and emesis study in cynomolgus monkeys; type: in vivo, cynomolgus monkey
Method: One male and one female cynomolgus monkeys (age: 4 years old, body weight: 3.9 kg in male, 2.7 kg in female) were used. The monkeys were housed in individual cages with a 12 hr:12 hr light-dark schedule at 22-27° C., and given 100 g of pellet diet (Oriental Yeast Co. Ltd) once daily. The diet was supplied after completion of the clinical observation at 8 hour post dose on the days of dosing. On other days during the experimental period, the diet was supplied each day after the completion of examinations and the remaining diet was withdrawn on the following morning. P41 was dissolved in 0.5 w/v % mannitol solution. The compound at 0.05 mg/kg was subcutaneously administered at day 1 and then at 0.15 mg/kg at day 4. Body weight was measured once during the pre-dosing period and on day 1, 4, 8, 11 and 15. Food intake was measured every day during the experimental period.

Male C57BL/6J mice = assay: Conditioned taste aversion (CTA) test; type: in vivo, mouse; conditions: 3 nmol/kg s.c.
Method: Male C57BL/6J (9 weeks old) mice were habituated to time-restricted bottled water supply (2-3 hours/day) and subcutaneous injection of saline for 1 week. Mice were divided into the groups based on the data of body weight and water intake. CTA test was performed according to the following protocol. On day 1 for the first conditioning, mice were given 0.1% sodium saccharin solution to drink for 3 hours. Ten-minutes after supplying the saccharin solution, vehicles, liraglutides and P41 were administered subcutaneously. […] On day 2, mice were given tap water for 3 hours and subcutaneous injection of saline after water supply. On day 3, the second conditioning was conducted as the same procedure used on day 1. On day 4, mice were given tap water for 3 hours without subcutaneous injection. On day 5, both tap water and saccharin solution were supplied to mice for 3 hours without subcutaneous injection and the intake of each fluid was measured. Saccharin preference ratio (%) was calculated according to the following equation: {(amount of saccharin intake)/(amount of saccharin intake+amount of water intake)}×100.

[1] = 3 nmol/kg s.c. once a day for 4 weeks
[2] = 10 nmol/kg s.c. once a day for 4 weeks
[3] = 30 nmol/kg s.c. once a day for 4 weeks
[4] = 3, 10 and 30 nmol/kg s.c. once a day for 4 weeks, dose-dependent
[5] = quantitative RT-PCR, liver, 4 weeks

For CCCCCCCCCCCCCCCC(=O)NCC(=O)NCC(=O)NCC(=O)NCC(=O)NCCCC[C@H](NC(=O)[C@H](CC(=O)O)NC(=O)[C@H](CO)NC(=O)[C@@H](NC(=O)[C@](C)(Cc1ccccc1)NC(=O)[C@@H](NC(=O)CNC(=O)[C@H](CCC(=O)O)NC(=O)C(C)(C)NC(=O)[C@H](Cc1ccc(O)cc1)NC)[C@@H](C)O)[C@@H](C)O)C(=O)N[C@@H](CO)C(=O)N[C@H](C(=O)NC(C)(C)C(=O)N[C@@H](CC(C)C)C(=O)N[C@@H](CCC(=O)O)C(=O)N[C@@H](CCCCN)C(=O)N[C@@H](CCC(N)=O)C(=O)N[C@@H](CCCNC(=N)N)C(=O)N[C@@H](CCC(N)=O)C(=O)N[C@@](C)(CC)C(=O)N[C@@H](CCC(=O)O)C(=O)N[C@@H](Cc1ccccc1)C(=O)N[C@H](C(=O)N[C@@H](CCCNC(=N)N)C(=O)N[C@@H](Cc1c[nH]cn1)C(=O)N[C@@H](CC(C)C)C(=O)N[C@@H](CC(C)C)C(=O)N[C@@H](CC(N)=O)C(=O)N[C@@H](CCCCN)C(=O)NC(C)(C)C(=O)N[C@H](C(=O)N[C@@H](CCCNC(=N)N)C(=O)N[C@@H](CCC(N)=O)C(=O)N[C@@H](CCCNC(=N)N)C(=O)N[C@@H](Cc1ccc(O)cc1)C(N)=O)[C@@H](C)O)C(C)C)[C@@H](C)CC [Example 41] (H-[NMeY][Aib]EGT[αMeF]TSDK([Gly-Gly-Gly-Gly-Palmitoyl])SI[Aib]LEKQRQ[Iva]EFVRHLLNK[Aib]TRQRY-NH2), the “decrease in body weight compared with vehicle group” value (from here on “decrease in body weight”) (Male DIO C57BL/6J mice; [1]) was 14.6%, the “decrease in body weight” value (Male DIO C57BL/6J mice; [2]) was 30.0% and the “decrease in body weight” value (Male DIO C57BL/6J mice; [3]) was 37.1%. For the same molecule, the “lean mass (EchoMRI)” value (Male DIO C57BL/6J mice; 3, 10 and 30 nmol/kg s.c. once a day for 4 weeks) was “subtle decrease”, the “fat mass (EchoMRI)” value (Male DIO C57BL/6J mice; [4]) was “drastic decrease” and the “inguinal, mesenteric and epididymal fat pad weight” value (Male DIO C57BL/6J mice; [4]) was “significantly decreased”. For the same molecule, the “liver TG content” value (Male DIO C57BL/6J mice; [4]) was “drastically decreased”, the liver weight (Male DIO C57BL/6J mice; [4]) was “drastically decreased” and the ALT (Male DIO C57BL/6J mice; [1]) was 94.2 ± 32.3 U/L. It also gave an AST (Male DIO C57BL/6J mice; [1]) of 170.0 ± 37.2 U/L, an Insulin (Male DIO C57BL/6J mice; [1]) of 4.9 ± 2.9 ng/mL and a TC (Male DIO C57BL/6J mice; [1]) of 253.6 ± 11.9 mg/dL. The TG (Male DIO C57BL/6J mice; [1]) was 50.5 ± 16.2 mg/dL, the ALT (Male DIO C57BL/6J mice; [2]) was 35.6 ± 9.7 U/L and the AST (Male DIO C57BL/6J mice; [2]) was 88.8 ± 11.7 U/L. For the same molecule, the Insulin (Male DIO C57BL/6J mice; [2]) was 3.7 ± 2.7 ng/mL, the TC (Male DIO C57BL/6J mice; [2]) was 189.5 ± 22.1 mg/dL and the TG (Male DIO C57BL/6J mice; [2]) was 62.2 ± 16.1 mg/dL. For the same molecule, the ALT (Male DIO C57BL/6J mice; [3]) was 37.5 ± 7.7 U/L, the AST (Male DIO C57BL/6J mice; [3]) was 90.2 ± 10.3 U/L and the Insulin (Male DIO C57BL/6J mice; [3]) was 5.2 ± 2.1 ng/mL. The TC (Male DIO C57BL/6J mice; [3]) was 173.2 ± 16.4 mg/dL, the TG (Male DIO C57BL/6J mice; [3]) was 50.2 ± 6.6 mg/dL and the “hepatic gene expression of inhibitor of fibrosis (MMP2)” value (Male DIO C57BL/6J mice; [5]) was “tended to increase”. The “hepatic gene expression related to fibrosis (Timp1, Col1α) and inflammation (CCl2)” value (Male DIO C57BL/6J mice; [5]) was “tended to decrease”, the “hepatic lipid droplet, HE staining of liver slices” value (Male DIO C57BL/6J mice; s.c. once a day for 4 weeks) was “Reduction of hepatic lipid droplet” and the food consumption (cynomolgus monkeys; 0.05 and 0.15 mg/kg (ca. 10 and 30 nmol/kg) s.c., one male and one female) was “almost completely abolished food consumption”. The “duration of inhibitory effect of food consumption” value (cynomolgus monkeys; 0.05 and 0.15 mg/kg s.c.) was ≥ 2 days, the vomiting (cynomolgus monkeys; 0.05 and 0.15 mg/kg s.c., throughout the experimental period) was “did not induce vomiting” and the “induction of conditioned taste aversion (emetic effects)” value (Male C57BL/6J mice) was “did not induce CTA”. The “Saccharin preference ratio (%)” value (Male C57BL/6J mice; two conditionings, mean ± SD) was 76.8 ± 9.5%.

Reference: patent US10501516B2, “Peptide compound” (TAKEDA PHARMACEUTICAL COMPANY LIMITED, priority 2016, dated 2019)
